Assay results reported in US11046686B2, “Thiadiazole IRAK4 compounds” (Gilead Sciences, Inc., priority 2018, dated 2021).
Read-outs that look alike come from different tables or passages of the source.

Assays:
[1] = biological target: IRAK4 enzyme (Homo sapiens (Human), UniProt Q9NWZ3); assay: IRAK4 Biochemical Assay (TR-FRET, STK1 KinEASE)
Description: IRAK4 enzyme (Carna Biosciences, Chuo-ku, Kobe, Japan) activity was measured by detecting phosphorylated peptide substrate formation using an antibody against the phosphorylated peptide substrate. This is a time-resolved fluorescence resonance energy transfer (TR-FRET) immunoassay, based on the STK1 KinEASE Assay (Cisbio, Bedford, Mass.). The assay was designed as a simple two-step, endpoint assay (a 5 μl enzyme reaction followed by 5 μl stop and detect Solution) performed in ProxiPlate-384 Plus plates (Perkin Elmer, Waltham, Mass.). […] Compounds diluted in DMSO were spotted into 384 well plates using a Labcyte® Echo 550 Liquid Handling System prior to addition of IRAK4 enzyme and peptide substrate. Reaction solutions were delivered using a Multi-Flo (Bio-Tek Instruments). The enzyme and peptide solution was incubated with compound for 15 minutes at room temp before the reaction was initiated by the addition of ATP. The standard 5 μl reaction mixture contained 500 μM ATP, […] peptide (STK1 Peptide), 0.75 nM of IRAK4 in reaction buffer (50 mM HEPES, pH 7.0, 0.02% NaN3, 0.01% BSA, 0.1 mM Orthovanadate, 5 mM […], 0.025% NP-40, 1 mM DTT). After 120 min of incubation at room temperature, 5 μl of Stop and Detect Solution (1:100 Cryptate labeled anti-phosphorylated peptide antibody solution and 125 nM Tracer in a 50 mM HEPES pH 7.0 detection buffer containing sufficient EDTA) was added. The plate was then further incubated for 60 minutes at room temperature and read on Envision 2103 Multilabeled reader (PerkinElmer) with excitation/emission/FRET emission at 340 nm/615 nm665 nm, respectively. Fluorescence intensities at 615 nm and 665 nm emission wavelengths were expressed as aratio (665 nm/615 nm). Percentage of inhibition was calculated as below: % Inhibition=100×(Ratiosample−Ratio0% Inhibition)/(Ratio100% Inhibition−Ratio0% Inhibition)
The 0% inhibition value comes from control wells lacking inhibitor.

[2] = system: TNFα; assay: IRAK4 Monocyte TNFα Cell Based Assay; design: species or system human
How it was run: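 Human monocytes (5,000/well) pretreated with compound 1 h at 37 °C (0.1% DMSO final), then stimulated with 50 pg/ml LPS for 4 h. Secreted TNFα measured by TR-FRET two-antibody detection after overnight incubation at room temperature; % control relative to unstimulated and LPS-stimulated wells.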

[3] = Homo sapiens, Monocyte, human monocytes, second part of Table 2, compounds 33-343, unit inferred, read-out: EC50 MONO TNF HTRF
[4] = Homo sapiens, Monocyte, read-out: EC50 MONO TNF HTRF
[5] = compounds 1-32, read-out: IC50 HTRF
[6] = Homo sapiens, Monocyte, human monocytes, LPS stimulated, compounds 1-32, read-out: EC50 TNF

Sequence of IRAK4 enzyme (Q9NWZ3 whole entry): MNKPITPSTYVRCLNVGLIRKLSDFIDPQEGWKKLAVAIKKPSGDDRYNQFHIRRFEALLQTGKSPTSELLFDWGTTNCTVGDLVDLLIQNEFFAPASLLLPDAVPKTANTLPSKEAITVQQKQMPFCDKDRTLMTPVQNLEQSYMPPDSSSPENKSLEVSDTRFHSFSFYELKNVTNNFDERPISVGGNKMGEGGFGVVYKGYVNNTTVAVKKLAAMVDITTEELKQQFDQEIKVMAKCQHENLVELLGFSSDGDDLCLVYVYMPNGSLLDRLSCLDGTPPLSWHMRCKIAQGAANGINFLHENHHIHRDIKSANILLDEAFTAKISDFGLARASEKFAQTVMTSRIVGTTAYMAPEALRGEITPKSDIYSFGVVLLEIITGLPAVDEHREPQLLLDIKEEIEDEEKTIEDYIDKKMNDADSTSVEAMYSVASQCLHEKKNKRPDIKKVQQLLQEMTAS

Compound | IC50 [1] | EC50 [2, 3] | EC50 [2, 4] | other results
N#Cc1cnn2c(-c3cc(NC4CCOCC4)c(-c4nnc(N5CC6CCC(C5)O6)s4)cn3)ccc2c1 [Compound 256, 7-(5-(5-(8-oxa-3-azabicyclo[3.2.1]octan-3-yl)-1,3,4-thiadiazol-2-yl)-4-((tetrahydro-2H-pyran-4-yl)amino)pyridin-2-yl)pyrrolo[1,2-b]pyridazine-3-carbonitrile] | 0.68 nM | 4.6 nM | – | –
CC(C)Nc1cc(-c2ccc3cc(C#N)cnn23)ncc1-c1nnc(N2CCS(=O)(=O)CC2)s1 [Compound 257, 7-(5-(5-(1,1-dioxidothiomorpholino)-1,3,4-thiadiazol-2-yl)-4-(isopropylamino)pyridin-2-yl)pyrrolo[1,2-b]pyridazine-3-carbonitrile] | 0.95 nM | 10000 nM | – | –
CC(=O)N1C2CCC1CN(c1nnc(-c3cnc(-c4ccc5cc(C#N)cnn45)cc3NC(C)C)s1)C2 [Compound 259, 7-(5-(5-(8-acetyl-3,8-diazabicyclo[3.2.1]octan-3-yl)-1,3,4-thiadiazol-2-yl)-4-(isopropylamino)pyridin-2-yl)pyrrolo[1,2-b]pyridazine-3-carbonitrile] | 0.94 nM | – | 2.6 nM | –
CC(C)Nc1cc(-c2ccc3cc(C#N)cnn23)ncc1-c1nnc(N2CC3CCC(C2)N3C(=O)C2CC2)s1 [Compound 263, 7-(5-(5-(8-(cyclopropanecarbonyl)-3,8-diazabicyclo[3.2.1]octan-3-yl)-1,3,4-thiadiazol-2-yl)-4-(isopropylamino)pyridin-2-yl)pyrrolo[1,2-b]pyridazine-3-carbonitrile] | 1.08 nM | – | 5.1 nM | –
CC(=O)N1[C@@H]2COC[C@H]1CN(c1nnc(-c3cnc(-c4ccc5cc(C#N)cnn45)cc3NC(C)C)s1)C2 [Compound 265, 7-(5-(5-((1R,5S)-9-acetyl-3-oxa-7,9-diazabicyclo[3.3.1]nonan-7-yl)-1,3,4-thiadiazol-2-yl)-4-(isopropylamino)pyridin-2-yl)pyrrolo[1,2-b]pyridazine-3-carbonitrile] | 2.43 nM | – | 11.3 nM | –
CC(=O)N1CCN(c2nnc(-c3cnc(-c4ccc5cc(C#N)cnn45)cc3NC(C)C)s2)C2CC21 (centres unmarked) [Compound 267, 7-(5-(5-(5-acetyl-2,5-diazabicyclo[4.1.0]heptan-2-yl)-1,3,4-thiadiazol-2-yl)-4-(isopropylamino)pyridin-2-yl)pyrrolo[1,2-b]pyridazine-3-carbonitrile] | 0.65 nM | 18.9 nM | – | –
CC(=O)NC12CC(c3nnc(-c4cnc(-c5ccc6cc(C#N)cnn56)cc4NC4CCOCC4)s3)(C1)C2 [Compound 270, N-(3-(5-(6-(3-cyanopyrrolo[1,2-b]pyridazin-7-yl)-4-((tetrahydro-2H-pyran-4-yl)amino)pyridin-3-yl)-1,3,4-thiadiazol-2-yl)bicyclo[1.1.1]pentan-1-yl)acetamide] | 0.65 nM | 10.7 nM | – | –
CC(C)Nc1cc(-c2ccc3cc(C#N)cnn23)ncc1-c1nnc(N2CC3CC(C2)N3C(=O)OC(C)(C)C)s1 [Compound 271, tert-butyl 3-(5-(6-(3-cyanopyrrolo[1,2-b]pyridazin-7-yl)-4-(isopropylamino)pyridin-3-yl)-1,3,4-thiadiazol-2-yl)-3,6-diazabicyclo[3.1.1]heptane-6-carboxylate] | 3.22 nM | – | 89 nM | –
CC(C)Nc1cc(-c2ccc3cc(C#N)cnn23)ncc1-c1nnc(N2CC3CC(C2)N3C(=O)C(C)(C)O)s1 [Compound 273, 7-(5-(5-(6-(2-hydroxy-2-methylpropanoyl)-3,6-diazabicyclo[3.1.1]heptan-3-yl)-1,3,4-thiadiazol-2-yl)-4-(isopropylamino)pyridin-2-yl)pyrrolo[1,2-b]pyridazine-3-carbonitrile] | 0.68 nM | – | 4.1 nM | –
CC(C)Nc1cc(-c2ccc3cc(C#N)cnn23)ncc1-c1nnc(N2C3CNCC2C3)s1 [Compound 274, 7-(5-(5-(3,6-diazabicyclo[3.1.1]heptan-6-yl)-1,3,4-thiadiazol-2-yl)-4-(isopropylamino)pyridin-2-yl)pyrrolo[1,2-b]pyridazine-3-carbonitrile] | 1.59 nM | – | 41 nM | –
CC(C)Nc1cc(-c2ccc3cc(C#N)cnn23)ncc1-c1nnc(N2C3CC2CN(C(=O)C(C)(C)O)C3)s1 [Compound 275, 7-(5-(5-(3-(2-hydroxy-2-methylpropanoyl)-3,6-diazabicyclo[3.1.1]heptan-6-yl)-1,3,4-thiadiazol-2-yl)-4-(isopropylamino)pyridin-2-yl)pyrrolo[1,2-b]pyridazine-3-carbonitrile] | 0.78 nM | 6.4 nM | – | –
CC(C)Nc1cc(-c2ccc3cc(C#N)cnn23)ncc1-c1nnc(N2C3CC2CN(C(=O)N2CCN(C)CC2)C3)s1 [Compound 277, 7-(4-(isopropylamino)-5-(5-(3-(4-methylpiperazine-1-carbonyl)-3,6-diazabicyclo[3.1.1]heptan-6-yl)-1,3,4-thiadiazol-2-yl)pyridin-2-yl)pyrrolo[1,2-b]pyridazine-3-carbonitrile] | 0.93 nM | – | 11.3 nM | –
CC(=O)NC12CCC(c3nnc(-c4cnc(-c5ccc6cc(C#N)cnn56)cc4NC(C)C)s3)(CC1)CC2 [Compound 280, N-(4-(5-(6-(3-cyanopyrrolo[1,2-b]pyridazin-7-yl)-4-(isopropylamino)pyridin-3-yl)-1,3,4-thiadiazol-2-yl)bicyclo[2.2.2]octan-1-yl)acetamide] | 1.03 nM | 7.4 nM | – | –
CNC(=O)[C@@H]1CCCN1c1nnc(-c2cnc(-c3ccc4cc(C#N)cnn34)cc2NC2COC2)s1 [Compound 332] | – | – | – | IC50 ([1]; second part of Table 2, compounds 33-343, unit inferred, read-out: IC50 IRAK4-HTBS): 1.61 nM; EC50 ([2]; human monocytes, second part of Table 2, compounds 33-343, unit inferred, read-out: EC50 MONO TNF HTRF): 435 nM
CC(C)Nc1cc(-c2ccc3cc(C#N)cnn23)ncc1-c1nnc(CCNC(=O)OC(C)(C)C)s1 [Example 1, tert-butyl (2-(5-(6-(3-cyanopyrrolo[1,2-b]pyridazin-7-yl)-4-(isopropylamino)pyridin-3-yl)-1,3,4-thiadiazol-2-yl)ethyl)carbamate] | – | – | – | IC50 [1, 5]: 1.5 nM; EC50 [2, 6]: 309 nM
CC(=O)N[C@H]1CC[C@H](c2nnc(-c3cnc(-c4ccc5cc(C#N)cnn45)cc3N[C@H]3CC[C@H](c4nnc(C(F)F)o4)CC3)s2)CC1 [Example 2, N-((1R,4r)-4-(5-(6-(3-cyanopyrrolo[1,2-b]pyridazin-7-yl)-4-(((1r,4R)-4-(5-(difluoromethyl)-1,3,4-oxadiazol-2-yl)cyclohexyl)amino)pyridin-3-yl)-1,3,4-thiadiazol-2-yl)cyclohexyl)acetamide] | – | – | – | IC50 [1, 5]: 1 nM; EC50 [2, 6]: 8 nM
CC(=O)N[C@H]1CC[C@H](c2nnc(-c3cnc(-c4ccc5cc(C#N)cnn45)cc3NC3(C)COC3)s2)CC1 [Example 3, N-((1r,4r)-4-(5-(6-(3-cyanopyrrolo[1,2-b]pyridazin-7-yl)-4-((3-methyloxetan-3-yl)amino)pyridin-3-yl)-1,3,4-thiadiazol-2-yl)cyclohexyl)acetamide] | – | – | – | IC50 [1, 5]: < 1 nM; EC50 [2, 6]: 15 nM
CC(C)Nc1cc(-c2ccc3cc(C#N)cnn23)ncc1-c1nnc(N2CCC3(CC2)COC3)s1 [Example 4, 7-(5-(5-(2-oxa-7-azaspiro[3.5]nonan-7-yl)-1,3,4-thiadiazol-2-yl)-4-(isopropylamino)pyridin-2-yl)pyrrolo[1,2-b]pyridazine-3-carbonitrile] | – | – | – | IC50 [1, 5]: 1 nM; EC50 [2, 6]: 23 nM
CC(C)Nc1cc(-c2ccc3cc(C#N)cnn23)ncc1-c1nnc(CO)s1 [Example 5, 7-(5-(5-(hydroxymethyl)-1,3,4-thiadiazol-2-yl)-4-(isopropylamino)pyridin-2-yl)pyrrolo[1,2-b]pyridazine-3-carbonitrile] | – | – | – | IC50 [1, 5]: 1 nM; EC50 [2, 6]: 76 nM
